# Data: ChEMBL document CHEMBL5576149, “Discovery of Potent STT3A/B Inhibitors and Assessment of Their Multipathogen Antiviral Potential and Safety” (J Med Chem, 2024)
# Activity calls are given as the source filed them. No cut-off for these calls is given here.
# Tests used:
# [1] = Bioavailability in CD1 mouse at 2 mg/kg,po or 1 mg/kg,iv administrated upto 60 mins by LC-MS/MS analysis; type: ADME, organism-based; settings: in vivo
# [2] = Neurotoxicity in human iPSC cells co-cultured with human astrocyte assessed as reduction in neuronal firing rate at 0.37 to 30 uM incubated for 1 hr by multi-electrode array analysis; type: toxicity, cell-based; settings: dose 0.37-30 µM
# H1-HeLa [3] = experiment: Inhibition of STT3A/STT3B in human H1-HeLa cells assessed as upregulation of SDF2L1 gene expression incubated for 24 hrs; type: cell-based
# [4] = Cardiotoxicity in human iPSC-CM cells assessed as increase in field potential duration at 370 nM incubated for 48 hr by multi-electrode array analysis; type: toxicity, cell-based; settings: 0.37 µM
# [5] = Chromatographic hydrophobicity index, logD of the compound at pH 7.4; type: physicochemical; settings: buffer
# Human respirovirus 3 = experiment: Antiviral activity against Human parainfluenza virus 3 JS infected in human A549 cells assessed as reduction in viral proliferation incubated for 44 hrs by Hoechst dye based fluorescence analysis; type: functional, organism-based; settings: Human respirovirus 3, JS, A549, 44 h
# Human coronavirus 229E = experiment: Antiviral activity against Human coronavirus 229E infected in human MRC5 cells assessed as reduction in viral growth incubated for 68 hrs by CellTiter-Glo luminescence assay; type: functional, organism-based; settings: MRC5, 68 h
# [6] = biological target: Sodium channel protein type 5 subunit alpha (Homo sapiens, UniProt Q14524); experiment: Inhibition of Nav1.5 (unknown origin); type: toxicity
# [7] = Neurotoxicity in human iPSC cells co-cultured with human astrocyte assessed as […] incubated for 1 hr by multi-electrode array analysis; type: toxicity, cell-based; settings: iPSC cells co-cultured with astrocytes
# [8] = Unbound clearance in CD1 mouse at 2 mg/kg,po or 1 mg/kg,iv administrated upto 60 mins by LC-MS/MS analysis; type: ADME, organism-based; settings: in vivo, 1 h
# [9] = Neurotoxicity in human iPSC cells co-cultured with human astrocyte assessed as inhibition of cell growth at 300 nM incubated for 48 hr by multi-electrode array analysis relative to control; type: toxicity, cell-based; settings: iPSC cells co-cultured with astrocytes
# [10] = Inhibition of STT3A/STT3B mediated N-linked glycosylation in human H1-HeLa cells stably transduced with ERluc by measuring effective concentration of inhibition incubated for 18 hrs by One-Glo luciferase reporter assay; type: cell-based
# [11] = Cardiotoxicity in human iPSC-CM cells assessed as decrease in beat period at 30 uM incubated for 1 hr by multi-electrode array analysis; type: toxicity, cell-based
# [12] = biological target: T1, Voltage-gated inwardly rectifying potassium channel KCNH2 (Homo sapiens, UniProt Q12809); experiment: Inhibition of hERG expressed in CHO cells by QPatch voltage clamp assay; type: toxicity, cell-based
# [13] = Cytotoxicity against human MRC5 cells by luminescence-based cell viability assay; type: toxicity
# A549 [14] = experiment: Cytotoxicity against human A549 cells; type: functional
# [15] = Solubility of compound in FaSSIF; type: ADME
# Influenza A virus [16] = experiment: Antiviral activity against influenza A virus H1N1 A/Puerto Rico/8/1934 infected in MDCK cells assessed as reduction in viral replication measured after 30 hrs of post-infection by RT-qPCR analysis relative to control; type: functional; set-up: scale not given: the % may be the effect or the level left
# Influenza A virus [17] = experiment: Antiviral activity against influenza A virus H1N1 A/Puerto Rico/8/1934 infected in MDCK cells assessed as reduction in viral proliferation incubated for 24 hrs by FFU assay; type: functional, organism-based; settings: H1N1 A/Puerto Rico/8/1934, MDCK
# SARS-CoV-2 = experiment: Antiviral activity against SARS-CoV-2 infected in human A549 cells assessed as reduction in viral growth incubated for 24 hrs by Nano-Glo reagent based analysis; type: functional, organism-based; settings: Severe acute respiratory syndrome coronavirus 2, A549, 24 h
# [18] = Volume of distribution at steady state in CD1 mouse at 2 mg/kg,po or 1 mg/kg,iv administrated upto 60 mins by LC-MS/MS analysis; type: ADME, organism-based; settings: in vivo, 1 h
# [19] = Inhibition of STT3A/STT3B mediated N-linked glycosylation in STT3A knockout human H1-HeLa cells stably transduced with Halo3N-ER sequence by measuring effective concentration incubated for 24 hrs by Western blotting analysis; type: cell-based
# [20] = Cardiotoxicity in human iPSC-CM cells assessed as decrease in spike amplitude at 3 uM incubated for 1 hr by multi-electrode array analysis; type: toxicity, cell-based; set-up: scale not given: the % may be the effect or the level left
# A549 [21] = experiment: Cytotoxicity against human A549 cells by fluorescent cell imaging assay; type: functional
# H1-HeLa [22] = experiment: Inhibition of STT3A/STT3B in human H1-HeLa cells assessed as upregulation of […] gene expression incubated for 24 hrs; type: cell-based
# H1-HeLa [23] = experiment: Inhibition of STT3A/STT3B in human H1-HeLa cells assessed as upregulation of DERL3 gene expression incubated for 24 hrs; type: cell-based
# [24] = Cardiotoxicity in human iPSC-CM cells assessed as decrease in spike amplitude at 370 nM incubated for 48 hr by multi-electrode array analysis; type: toxicity, cell-based; settings: 0.37 µM
# [25] = Inhibition of STT3A/STT3B mediated N-linked glycosylation in STT3B knockout human H1-HeLa cells stably transduced with Halo3N-ER sequence by measuring effective concentration incubated for 24 hrs by Western blotting analysis; type: cell-based
# [26] = Unbound clearance in human liver microsomes at 0.5 uM incubated upto 45 mins; type: ADME, Microsome; settings: 0.75 h
# H1-HeLa [27] = experiment: Inhibition of STT3A/STT3B in human H1-HeLa cells assessed as upregulation of MANF gene expression incubated for 24 hrs; type: cell-based
# [28] = Unbound clearance in rat liver microsomes at 0.5 uM incubated upto 45 mins; type: ADME, Microsome; settings: 0.75 h
# Influenza A virus [29] = experiment: Antiviral activity against influenza A virus H1N1 A/Puerto Rico/8/1934 infected in MDCK cells assessed as reduction in viral replication measured after 3 hrs of post-infection by RT-qPCR analysis relative to control; type: functional; set-up: scale not given: the % may be the effect or the level left
# [30] = biological target: Voltage-dependent L-type calcium channel subunit alpha-1C (Homo sapiens, UniProt Q13936); experiment: Inhibition of Cav1.2 (unknown origin) expressed in HEK cells by manual patch clamp assay; type: toxicity, cell-based
# [31] = Cytotoxicity against human Hepatocyte cultured as 3D spheroids incubated for 14 days by CellTiter-Glo luminescence assay; type: toxicity, cell-based; settings: hepatocytes cultured as 3D spheroids
# [32] = MRT in CD1 mouse at 2 mg/kg,po or 1 mg/kg,iv administrated upto 60 mins by LC-MS/MS analysis; type: ADME, organism-based; settings: in vivo
# [33] = Cardiotoxicity in human iPSC-CM cells assessed as decrease in beat period at 1 uM incubated for 48 hr by multi-electrode array analysis; type: toxicity, cell-based
# [34] = Cardiotoxicity in human iPSC-CM cells assessed as increase in field potential duration at 10 uM incubated for 1 hr by multi-electrode array analysis; type: toxicity, cell-based
# [35] = Cardiotoxicity in human iPSC-CM cells assessed as decrease in spike amplitude incubated for 48 hr by multi-electrode array analysis; type: toxicity, cell-based
# [36] = Cardiotoxicity in human iPSC-CM cells assessed as increase in field potential duration incubated for 48 hr by multi-electrode array analysis; type: toxicity, cell-based
# [37] = biological target: T1, Voltage-gated inwardly rectifying potassium channel KCNH2; experiment: Inhibition of HA-tagged hERG expressed in human U2OS cells assessed as reduction in ERG protein at 3 uM incubated for 24 hrs by Western blotting analysis; type: toxicity, cell-based
# T1 sequence (Q12809 whole entry): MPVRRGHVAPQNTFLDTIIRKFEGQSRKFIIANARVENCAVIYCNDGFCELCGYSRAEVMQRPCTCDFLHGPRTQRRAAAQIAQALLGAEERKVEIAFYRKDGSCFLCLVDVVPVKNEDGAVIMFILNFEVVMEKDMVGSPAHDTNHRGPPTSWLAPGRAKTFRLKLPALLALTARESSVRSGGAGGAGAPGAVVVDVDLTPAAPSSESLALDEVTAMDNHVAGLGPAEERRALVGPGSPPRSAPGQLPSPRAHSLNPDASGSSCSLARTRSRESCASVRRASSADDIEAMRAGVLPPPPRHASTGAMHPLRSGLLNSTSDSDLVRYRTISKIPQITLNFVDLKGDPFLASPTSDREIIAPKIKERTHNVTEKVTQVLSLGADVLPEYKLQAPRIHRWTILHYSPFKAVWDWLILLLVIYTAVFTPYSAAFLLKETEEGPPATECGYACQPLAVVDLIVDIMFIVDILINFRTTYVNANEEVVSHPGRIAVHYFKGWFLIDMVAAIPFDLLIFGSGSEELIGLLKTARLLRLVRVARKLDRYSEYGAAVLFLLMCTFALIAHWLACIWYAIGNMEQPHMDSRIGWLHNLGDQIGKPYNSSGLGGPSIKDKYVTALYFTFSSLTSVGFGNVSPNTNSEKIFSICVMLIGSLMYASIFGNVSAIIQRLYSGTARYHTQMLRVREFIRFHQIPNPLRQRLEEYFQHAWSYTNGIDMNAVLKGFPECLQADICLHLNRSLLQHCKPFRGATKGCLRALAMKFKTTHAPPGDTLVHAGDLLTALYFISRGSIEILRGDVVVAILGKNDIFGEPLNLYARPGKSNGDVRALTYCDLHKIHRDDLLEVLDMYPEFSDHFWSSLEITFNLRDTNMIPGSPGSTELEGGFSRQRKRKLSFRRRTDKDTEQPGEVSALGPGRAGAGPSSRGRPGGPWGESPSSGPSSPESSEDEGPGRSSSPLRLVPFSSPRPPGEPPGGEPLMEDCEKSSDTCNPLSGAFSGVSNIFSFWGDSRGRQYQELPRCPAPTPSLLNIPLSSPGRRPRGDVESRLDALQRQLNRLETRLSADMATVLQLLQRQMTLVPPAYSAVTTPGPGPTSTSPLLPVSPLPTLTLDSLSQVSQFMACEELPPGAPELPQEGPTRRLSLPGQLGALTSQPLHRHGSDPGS
# Voltage-dependent L-type calcium channel subunit alpha-1C, sequence (Q13936 whole entry): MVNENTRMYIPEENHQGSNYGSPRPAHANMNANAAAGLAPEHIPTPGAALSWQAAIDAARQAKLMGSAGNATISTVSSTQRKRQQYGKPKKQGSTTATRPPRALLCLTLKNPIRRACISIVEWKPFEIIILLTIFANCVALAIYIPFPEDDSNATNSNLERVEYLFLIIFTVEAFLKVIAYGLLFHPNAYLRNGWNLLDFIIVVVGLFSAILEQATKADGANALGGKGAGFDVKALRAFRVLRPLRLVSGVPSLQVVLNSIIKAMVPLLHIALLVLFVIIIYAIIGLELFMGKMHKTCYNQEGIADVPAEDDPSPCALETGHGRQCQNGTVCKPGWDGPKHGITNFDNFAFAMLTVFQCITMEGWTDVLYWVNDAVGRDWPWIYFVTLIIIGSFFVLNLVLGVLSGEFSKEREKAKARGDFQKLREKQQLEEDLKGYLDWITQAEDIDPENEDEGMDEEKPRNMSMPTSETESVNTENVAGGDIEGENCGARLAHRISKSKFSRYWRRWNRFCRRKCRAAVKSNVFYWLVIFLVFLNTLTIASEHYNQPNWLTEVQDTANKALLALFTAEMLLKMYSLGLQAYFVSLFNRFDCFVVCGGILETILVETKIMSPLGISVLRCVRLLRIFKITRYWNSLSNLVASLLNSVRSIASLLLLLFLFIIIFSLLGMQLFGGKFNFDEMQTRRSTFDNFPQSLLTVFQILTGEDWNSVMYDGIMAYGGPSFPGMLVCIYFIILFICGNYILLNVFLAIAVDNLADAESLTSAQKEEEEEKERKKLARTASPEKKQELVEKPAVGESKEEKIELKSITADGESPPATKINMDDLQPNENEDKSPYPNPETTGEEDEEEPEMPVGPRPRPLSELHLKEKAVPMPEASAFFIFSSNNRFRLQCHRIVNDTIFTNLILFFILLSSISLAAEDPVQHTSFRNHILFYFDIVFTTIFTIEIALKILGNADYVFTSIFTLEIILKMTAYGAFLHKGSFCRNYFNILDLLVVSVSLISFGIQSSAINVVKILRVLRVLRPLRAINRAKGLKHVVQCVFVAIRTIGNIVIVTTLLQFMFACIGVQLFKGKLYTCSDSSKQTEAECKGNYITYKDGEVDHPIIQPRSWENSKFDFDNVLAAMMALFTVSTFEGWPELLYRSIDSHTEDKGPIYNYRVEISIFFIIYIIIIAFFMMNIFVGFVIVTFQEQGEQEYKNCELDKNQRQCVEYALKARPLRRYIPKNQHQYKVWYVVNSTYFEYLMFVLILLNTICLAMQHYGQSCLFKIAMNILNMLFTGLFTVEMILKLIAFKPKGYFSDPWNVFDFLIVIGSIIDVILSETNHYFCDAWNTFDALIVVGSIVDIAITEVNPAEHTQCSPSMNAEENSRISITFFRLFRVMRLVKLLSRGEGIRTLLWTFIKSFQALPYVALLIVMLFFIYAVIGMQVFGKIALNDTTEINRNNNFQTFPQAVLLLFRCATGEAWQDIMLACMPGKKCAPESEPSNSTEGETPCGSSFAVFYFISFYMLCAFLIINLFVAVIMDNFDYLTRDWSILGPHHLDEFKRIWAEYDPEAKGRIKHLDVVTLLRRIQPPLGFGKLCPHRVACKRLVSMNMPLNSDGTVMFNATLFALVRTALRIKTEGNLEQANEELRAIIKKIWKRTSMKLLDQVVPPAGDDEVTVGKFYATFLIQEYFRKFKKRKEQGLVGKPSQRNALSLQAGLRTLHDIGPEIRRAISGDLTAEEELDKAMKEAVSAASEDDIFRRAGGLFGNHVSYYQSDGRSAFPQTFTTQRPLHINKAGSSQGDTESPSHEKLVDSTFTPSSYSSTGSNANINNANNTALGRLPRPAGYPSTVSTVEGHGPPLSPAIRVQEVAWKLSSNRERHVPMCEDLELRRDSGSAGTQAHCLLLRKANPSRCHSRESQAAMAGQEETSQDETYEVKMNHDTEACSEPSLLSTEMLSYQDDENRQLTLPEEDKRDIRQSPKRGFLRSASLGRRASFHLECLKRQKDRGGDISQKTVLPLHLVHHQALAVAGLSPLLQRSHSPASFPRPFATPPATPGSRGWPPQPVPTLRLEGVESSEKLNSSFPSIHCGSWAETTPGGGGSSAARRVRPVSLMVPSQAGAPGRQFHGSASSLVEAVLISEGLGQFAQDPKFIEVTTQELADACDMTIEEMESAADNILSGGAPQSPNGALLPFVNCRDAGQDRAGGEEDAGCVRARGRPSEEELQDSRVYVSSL
smiles,measurement,setting,value
CN(C)S(=O)(=O)c1ccc(N2CC[C@H](O)C2)c(-c2cc3ccccc3[nH]2)c1,bioavailability,[1],28%
same,Activity,[2],Toxic
same,inhibition,H1-HeLa [3],Active
same,Activity,[4],Toxic
same,chromatographic logD,[5],4.8
same,EC50,Human respirovirus 3,187 nM
same,EC50,Human coronavirus 229E,30 nM
same,IC50,[6],~20 µM
same,IC50 at 1 hr,[7],23 µM
same,CL free,[8],2268 mL/min/kg
same,"inhibition at 48 h, 0.3 µM",[9],75%
same,EC50,[10],23 nM
same,Activity,[11],Toxic
same,IC50,[12],~20 µM
same,CC50,[13],984 nM
same,CC50,A549 [14],2750 nM
same,solubility,[15],53 µg/mL
same,Activity,Influenza A virus [16],60%
same,EC50,Influenza A virus [17],297 nM
same,EC50,SARS-CoV-2,62 nM
same,Vdss,[18],4.3 L/kg
same,EC50,[19],63 nM
same,Activity,[20],20%
same,CC50,A549 [21],831 nM
same,inhibition,H1-HeLa [22],Active
same,inhibition,H1-HeLa [23],Active
same,Activity,[24],Toxic
same,EC50,[25],41 nM
same,CL free,[26],158 mL/min/kg
same,inhibition,H1-HeLa [27],Active
same,CL free,[28],3761 mL/min/kg
same,Activity,Influenza A virus [29],>90%
same,IC50,[30],> 100 µM
same,IC50 at 14 days,[31],< 1200 nM
same,MRT,[32],1 h
same,Activity,[33],Toxic
same,Activity,[34],20%
C=C[C@H]1C[N@@]2CC[C@H]1C[C@@H]2[C@@H](O)c1ccnc2ccc(OC)cc12 [QUINIDINE],Activity,[35],Non-Toxic
same,Activity,[36],Non-Toxic
O=C([C@@H]1CCN1S(=O)(=O)c1ccc(N2CCC(F)(F)C2)c(-c2cc3ccccc3[nH]2)c1)N1CCOCC1,chromatographic logD,[5],5.3
same,inhibition (INH),[37],Active
same,EC50,[10],5 nM
same,CL free,[26],> 2851 mL/min/kg
same,CL free,[28],> 4854 mL/min/kg
same,IC50 at 14 days,[31],< 1200 nM
